The text below walks through data of PubChem BioAssay AID463074 (Broad Institute, 2010).

The AC50 is the concentration giving half of the maximal activity seen.

Activity calls are given as the source filed them.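 Rule for the calls: active = AC50 no more than tenfold above the top dose tested, or full inhibition at every dose with a flat fit (cut at about 19 µM in these data); inconclusive = flat curve fit with inhibition between 30% and 70%, or poor fit; inactive = AC50 more than tenfold above the top dose tested.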

In this assay the test system is HMLE_sh_eGFP viability, CellTiter-Glo luminescence, 72 h. The assay can be described thus: cytotoxicity in HMLE control line with eGFP shRNA, dose response, counter-screen for HMLE_sh_ECad selective toxicity project, cell-based, HMLE_sh_eGFP, luminescence (AID 463074).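 Note: counterscreen control line to flag general toxicity for the HMLE_sh_ECad screen; potency for loss of viability as luminescence drops below DMSO wells.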
In the case of `Cn1cncc1C#Cc1c(-c2ccsc2)sc2ccccc12`, the AC50 was 7.26 µM. Next, `NC(=O)CC(NC(=O)Cc1cccc2ccccc12)c1ccc(N2CCc3ccccc3C2)c([N+](=O)[O-])c1` (stereo not given): 17.6 µM. Consider `O=C(NC(=S)NCCc1ccccc1)C1CCCCC1`, for which the AC50 was 18.4 µM.

Take `CN1C(=O)/C(=C/c2cccc(Cl)c2)Sc2ccc(C(=O)NCc3cccnc3)cc21`: the AC50 was 5.15 µM. For `CC(=O)Nc1ccc(SCC(=O)c2cc(C)n(-c3ccccc3)c2C)cc1`, the AC50 is 13.3 µM.

On to `O=C(COC(=O)/C=C/C(=O)OCC(=O)Nc1ccccc1F)Nc1ccccc1F`, for which the AC50 is 9.61 µM. Next, `COc1ccc(NC(=O)c2cc(-c3ccccc3OC)on2)cc1`: 0.983 µM; `O=C(NCCN1CCOCC1)NC1(C(F)(F)F)Oc2ccc(Cl)cc2O1` (stereo not given): 14 µM. Next, `CSc1nnc(NC(=O)c2nc(S(=O)(=O)Cc3ccccc3F)ncc2Cl)s1`: 2.92 µM; `CN1CCN(Cc2nc3ccccc3c(=O)n2Cc2nc(-c3ccc4ccccc4c3)cs2)CC1`: 3.59 µM. Next, `Cc1ccc(NC(=S)N(CCCN2CCCC2)Cc2cccn2Cc2ccc(Cl)cc2)cc1Cl`: 4.92 µM; `COc1cccc(/C=C/C(=C2/C(=O)N(c3ccccc3)N=C2C)c2ccc(Br)cc2)c1OC`: > 19.5 µM (inactive). Consider `O=C(Nc1ccc(Cl)cc1)c1nc[nH]c1C(=O)NCCN(CCNC(=O)c1[nH]cnc1C(=O)Nc1ccc(Cl)cc1)CCNC(=O)c1[nH]cnc1C(=O)Nc1ccc(Cl)cc1`, for which the AC50 was 4.36 µM. Next, `CCOC(=O)/C(=C\c1ccc(Cl)cc1)c1nc2sc(C)c(C)c2c(=O)[nH]1`: 1.54 µM. Next, `Cc1cc(C)cc(C(=O)Nc2nnc(SCC(=O)N3CCCc4ccccc43)s2)c1`: > 19.5 µM (inactive); `Cc1ccnc(NC(=O)CSc2cc(=O)n(C)c3ccccc23)c1`: 8.16 µM. Next, `CN(C)CCOc1ccc(-c2c(-c3ccccc3)sc3ccccc23)cc1`: 2.53 µM; `COc1c(CC=C(C)C)cc(C2CC(=O)c3c(O)cc(O)cc3O2)cc1CC=C(C)C` (stereo not given): 3.65 µM; `CC(=O)n1c2c(c3ccccc31)OC(N)=C(C#N)C2c1cccc(Cl)c1Cl` (stereo not given): 4.88 µM.

On to `Cc1ccc(S(=O)(=O)N2CCCCC2)cc1NC(=O)Cn1ncc(Cl)c(Cl)c1=O`, for which the AC50 is 2.44 µM. As to `CCCCCc1cc(=O)oc2c(C(CCN3CCCCC3)c3ccc(OC)cc3)c(OC)cc(OC)c12` (stereo not given), the half-maximal activity concentration (AC50) is 7.47 µM. For `O=C(NNc1ccc(-c2csnn2)cc1)c1cc(Cl)cc(Cl)c1`, the AC50 is 3.02 µM. Next, `CCN(CC(=O)Nc1ccc(NC(C)=O)cc1)C(=O)c1ccccc1CCc1ccccc1`: > 19.5 µM (inactive); `CC(C)=CCc1c(O)cc2c(c1O)C(=O)CC(c1ccc(O)cc1)O2` (stereo not given): 3.74 µM. Next, `O=S(=O)([N-]c1nc2ccccc2nc1-[n+]1ccc(Cc2ccccc2)cc1)c1ccc(Br)s1`: 6.16 µM. Next, `O=C(CSCc1cccc(Cl)c1)Nc1ccccc1-c1ccccc1`: > 19.5 µM (inactive); `CCN1CCN(CCNC(=O)c2ccc3c(c2)N(Cc2ccc(F)cc2)C(=O)/C(=C/c2ccccc2)S3)CC1`: 3.71 µM; `COC(=O)c1ccc(/C=C/c2c(-c3ccc(OC)cc3)oc3ccccc23)cc1`: 5.95 µM.

For `O=c1cc(-c2ccccc2)[nH]n1-c1nc2ccccc2s1`, the AC50 is 5.53 µM.

As to `CC(=O)Oc1ccc(C#C/C=C2\c3ccccc3C(=O)N2c2ccccc2)cc1`, the AC50 is 4.92 µM.

As for `Cc1cccc2[nH]c3c(N4CC=C(c5ccc(F)cc5)CC4)ncnc3c12`, the concentration at half-maximal activity (AC50) is 5.01 µM.

With `Cc1cc(C)c(OCCCCN2CCNCC2)c(C)c1`, the AC50 is 16 µM.

Take `COC(=O)c1cc(=O)n(Cc2cccs2)c(=Nc2ccccc2)s1`: the AC50 is 4.57 µM.

`CCOc1ccc(OCc2cccc(C(=O)Nc3ccc(CN4CCCCC4)cc3)c2)cc1`: the AC50 is 5.38 µM.

For `O=C(COCc1cc(-c2ccc3c(c2)OCO3)on1)N1CCN(c2cccc(C(F)(F)F)c2)CC1`, the AC50 was 2.69 µM. Next, `Oc1ccc(-c2cc(-c3ccc(O)cc3)nc(-c3ccccc3)n2)cc1`: 3.77 µM. Consider `Cc1ccc(C)c(OCCCCN2CCNCC2)c1C`, for which the AC50 was 6.15 µM. Next, `CCCOc1ccc2c(c1)C(=NN=C(N)N)c1cc(OCCC)ccc1-2`: 3.7 µM.

As for `O=c1oc2ccccc2c(O)c1Cc1cc(Cl)c2cccnc2c1O`, the AC50 is 4.9 µM. In the case of `OC(COc1ccc2ccccc2c1Br)Cn1cnc(-c2ccccc2)c1` (stereo not given), the AC50 is 6.05 µM. Next, `COC(=O)C1C(=O)C2=C(CC1C)NC(=O)CC2c1cccc(C)c1` (stereo not given): > 19.5 µM (inactive); `CCCCCC(=O)Nc1nc(C)c(-c2csc(Nc3cc(OC)ccc3OC)n2)s1`: 2.11 µM. Turning to `Cc1ccc(Nc2nc(N)c([N+](=O)[O-])c(NCc3ccco3)n2)cc1C`, the AC50 was 7.19 µM.

As to `C[C@@]12CCC=C[C@H]1[C@H](c1ccc(F)c(/C=C/c3ccccc3)c1)N(Cc1ccccc1)C2=O`, the AC50 was 7.18 µM. Next, `O=C(CCC1CCCC1)Nc1ccc(C(=O)NCc2cccnc2)cc1`: 1.04 µM; `O=C(NCc1cccnc1)c1ccc(NC(=O)c2ccc(Br)cc2)cc1`: 3.11 µM; `CN(C)c1ccc(-c2cc([C@H]3[C@@H]4C=CCC[C@@]4(C)C(=O)N3Cc3ccccc3)ccc2F)cc1`: 6.46 µM. Next, `Brc1ccc2[nH]c3c(N4CCc5ccccc5C4)ncnc3c2c1`: 17.3 µM. Next, `CCn1c(C)c(C)c2cc(C(=O)N3CCN(c4cccc(C)c4C)CC3)ccc21`: 5.44 µM.

As for `Cc1cc(C)cc(NS(=O)(=O)c2ccc(Oc3ncc(C(F)(F)F)cc3Cl)cc2)c1`, the concentration at half-maximal activity (AC50) is 4.3 µM. Next, `COc1ccc(C(=O)/C=C/c2ccc(OC)c(Cn3nnc4ccccc43)c2)cc1`: 6.82 µM; `COc1ccc(-c2sc3ccc(N4CCOCC4)cc3c2C#CCCO)cc1`: 4.73 µM. `CNC(=O)c1cc(Oc2ccc(NC(=O)Nc3ccc(Cl)c(C(F)(F)F)c3)cc2)ccn1`: the AC50 is 2.39 µM. Next, `COc1ccccc1NC(=O)c1ccc(S(=O)(=O)N2CCCC(C)C2)cc1` (stereo not given): > 19.5 µM (inactive); `CC(C)Oc1ccc(C(=O)/C=C2/C(=O)Nc3ccccc32)cc1`: 6.4 µM; `Cc1ccc2nc(-c3cccc(-c4cccc(Cl)c4)c3)c(NCc3ccccc3)n2c1`: 3.17 µM.

As for `CSc1nc(C)cc(OCC(=O)N/N=C/c2ccccc2O)n1`, the AC50 was 11 µM. Next, `C/C(=N\OCc1nc2ccccc2c(=O)n1/N=C/c1cc([N+](=O)[O-])ccc1O)c1ccccc1`: 16 µM. Next, `Oc1ccc(Cl)cc1-c1cc(-c2cccc(Br)c2)n[nH]1`: 6.39 µM; `CCCC(O)(c1ccc(Cl)cc1)C(CN1CCOCC1)c1ccc(Cl)cc1` (stereo not given): 9.47 µM.

As for `Cc1cc(N2CCN(c3ccc(C(F)(F)F)cc3[N+](=O)[O-])CC2)c2ccccc2n1`, the AC50 was 1.38 µM. In the case of `CCn1c(N2CCN(S(=O)(=O)c3ccc(F)cc3)CC2)nc2ccccc21`, the AC50 was > 19.5 µM (inactive).

Regarding `CC(C)C[C@H](NC(=O)c1nc[nH]c1C(=O)NC(c1ccccc1)c1ccccc1)C(=O)OC(C)(C)C`, the concentration at half-maximal activity (AC50) is 3.67 µM. Next, `CCC(=O)Nc1ccc(C(=O)Cn2ncc(Cl)c(Cl)c2=O)cc1`: 7.77 µM.

Consider `O=C1NC(c2ccc(-c3ccccc3[N+](=O)[O-])o2)C(C(=O)c2ccc(Cl)cc2)C(O)(C(F)(F)F)N1` (stereo not given), for which the AC50 was 13.8 µM.

On to `Cc1ccc2sc(N(CCCN(C)C)C(=O)c3ccc(S(=O)(=O)N(C)C4CCCCC4)cc3)nc2c1C`, for which the AC50 is 3.63 µM. Next, `N=C(N)SCc1nc2ccccc2c(=O)n1-c1ccccc1Cl`: 12.5 µM. Next, `C=C(CC[C@@H](O)C(C)(C)O)[C@H]1CC[C@]2(C)[C@@H]1CCC1[C@@]3(C)CCC(=O)C(C)(C)C3CC[C@]12C` (stereo not given in full): 2.52 µM. Next, `CC1(C)Cc2ccccc2C(CSc2ccccc2C(=O)O)=N1`: 17.2 µM. Turning to `O=C1C2C3C=CC(C3)C2C(=O)N1c1ccc(N2CCN(c3ccccn3)CC2)c([N+](=O)[O-])c1` (stereo not given), the AC50 is 3.42 µM. For the compound `O=C(Nc1cc(S(=O)(=O)Nc2ccc(Cl)cc2)ccc1N1CCCCC1)c1ccc(F)cc1`, the half-maximal activity concentration (AC50) was 8.97 µM. Next, `C[C@H](CO)N1C[C@H](C)[C@H](CN(C)Cc2ccc(-c3ccccc3)cc2)Oc2ccc(NS(=O)(=O)c3ccccc3)cc2CC1=O`: 4.74 µM. Next, `C=CCn1c(SCC(=O)c2[nH]c(C)c(C(=O)OCC)c2C)nc2scc(-c3ccc(OC)c(OC)c3)c2c1=O`: 3.99 µM; `CCc1c(C2(O)CCCCC2)[nH]c2c(C(=O)OC)cc(Cl)cc12`: 2.69 µM; `CCCCC(=O)NC(c1ccco1)c1cc(Cl)c2cccnc2c1O` (stereo not given): 5.79 µM. Next, `CCN1CCN(Cc2ccc(OCc3ccccc3)cc2)CC1`: 4.38 µM; `Cc1cccc(Nc2nc(N)c([N+](=O)[O-])c(N3CC(C)CC(C)C3)n2)c1` (stereo not given): 6.75 µM. Take `COc1ccccc1OCCN1CSC(=S)N(C)C1`: the AC50 was 5.24 µM.

As to `CCOC(=O)c1c(NC(=O)CSc2nc3ccc(C)cc3[nH]2)sc2c1CC(C)(C)NC2(C)C`, the concentration at half-maximal activity (AC50) was 6.64 µM. Next, `N#Cc1c([N+](=O)[O-])cc([N+](=O)[O-])cc1S(=O)(=O)Cc1ccccc1`: 3.62 µM; `O=C(Nc1ccccc1)NN(C(=O)CCl)c1ccccc1`: 6.45 µM.

Take `CCCCCCOc1ccc(OC(=O)c2ccncc2)cc1`: the AC50 was 5.43 µM. Next, `CCN(CC)c1ccc(/C=N/NC(=O)CCC(=O)NCc2ccccc2)c(O)c1`: 8.23 µM; `C[C@H]1CN([C@@H](C)CO)C(=O)Cc2cc(NC(=O)CCC(F)(F)F)ccc2O[C@H]1CN(C)Cc1ccc(-c2ccccc2)cc1`: 6.9 µM. Next, `COc1ccc2sc(-c3ccc(N(C)C)cc3)c(C#Cc3cncn3C)c2c1`: 2.18 µM; `Oc1ccc(-c2csc(Nc3ccccn3)n2)c(O)c1`: 3.93 µM. Next, `COc1ccccc1/C=C1\S/C(=N/NC(=O)c2cccc(Br)c2)NC1=O`: 8.09 µM; `C=CCn1c2ccccc2c(=O)c2cc(C#Cc3cc(OC)cc(OC)c3)ccc21`: 11.1 µM; `COC(=O)c1cc(NC(=O)c2cc(-c3ccccc3Cl)oc2C(F)(F)F)ccc1N1CCOCC1`: 20.3 µM. Consider `C=C(C)COc1ccc(-c2n[nH]c(C)c2-c2ccc(Br)cc2)c(O)c1`, for which the half-maximal activity concentration (AC50) is 3.25 µM.
